According to patent US20200222474A1, “COMPOSITIONS AND METHODS FOR INCREASING PHYTOCHEMICAL BIOAVAILABLITY AND BIOACTIVITY” (North Carolina State University, priority 2017, published 2020):

Test system: L. acidophilus NCFM
Assay: RNA-seq transcriptional analysis of L. acidophilus NCFM growing on plant glycosides
Type: cell-based, Lactobacillus acidophilus
[1] = gene LBA0282 (Hypothetical protein)
[2] = gene LBA0327 (Replication protein)
[3] = gene LBA0328 (Hypothetical protein)
[4] = gene LBA0330 (Hypothetical protein)
[5] = gene LBA0457 (Hypothetical protein)
[6] = gene LBA0485 (Hypothetical protein)
[7] = gene LBA0486 (Hypothetical protein)
[8] = gene LBA0487 (Hypothetical protein.)
[9] = gene LBA0492 (Hypothetical protein)
[10] = gene LBA0541 (Cadmium-transporting ATPase)
[11] = gene LBA0542 (Putative heavy-metal-transporting alpase)
[12] = gene LBA0543 (Hypothetical protein)
[13] = gene LBA0544 (Transcriptional regulator)
[14] = gene LBA0555 (Myosin-crossreactive antigen)
[15] = gene LBA0564 (HAD family hydrolase)
[16] = gene LBA0574 (ABC multi drug exporter)
[17] = gene LBA0575 (ABC multi drug exporter)
[18] = gene LBA0604 (Immunity protein)
[19] = gene LBA0605 (Putative hydrolase)
[20] = gene LBA0608 (Hypothetical protein)
[21] = gene LBA0631 (Hypothetical protein)
[22] = gene LBA0649 (Myosin-crossreactive antigen)
[23] = gene LBA0728 (Hypothetical protein LBA0728)
[24] = gene LBA1025 (Aldo/keto reductase family oxidoreductase)
[25] = gene LBA1026 (Aldo/keto reduetase family oxidoreductase)
[26] = gene LBA1206 (Hypothetical protein)
[27] = gene LBA1401 (Peroxidase (Npx))
[28] = gene LBA1435 (Hypothetical protein)
[29] = gene LBA1455 (Putative surface layer protein)
[30] = gene LBA1469 (UDP-glucose 4-epimerase)
[31] = gene LBA1656 (Hypothetical protein)
[32] = gene LBA1675 (Hypothetical protein)
[33] = gene LBA1676 (ATP-dependent helicase)
[34] = gene LBA1683 (Putative magnesium-transporting atpase)
[35] = gene LBA1704 (N-Acetylmuramic acid-6-phosphate etherase)
[36] = gene LBA1740 (Hypothetical protein)
[37] = gene LBA1752 (Hypothetical protein)
[38] = gene LBA1769 (Hypothetical protein)
[39] = gene LBA1793 (Hypothetical protein)
[40] = gene LBA1869 (Beta-phosphoglueomutase)
[41] = gene LBA1895 (Hypothetical protein)
[42] = nTPM on plant glycoside relative to glucose, mid-exponential phase

O=c1ccc2cc(O[C@@H]3O[C@H](CO)[C@@H](O)[C@H](O)[C@H]3O)c(O)cc2o1 [Esculin]
Log2 differential normalized TPM ratio compared to glucose [1]: 2.1
Log2 differential normalized TPM ratio compared to lactose [1]: 1.4
Transcripts per million (rpm) [1]: 92.4 rpm
Log2 differential normalized TPM ratio compared to glucose [2]: 2.4
Log2 differential normalized TPM ratio compared to lactose [2]: 2.1
Transcripts per million (rpm) [2]: 43.4 rpm
Log2 differential normalized TPM ratio compared to glucose [3]: 1.9
Log2 differential normalized TPM ratio compared to lactose [3]: 2
Transcripts per million (rpm) [3]: 55.9 rpm
Log2 differential normalized TPM ratio compared to glucose [4]: 3.3
Log2 differential normalized TPM ratio compared to lactose [4]: 2.9
Transcripts per million (rpm) [4]: 211.2 rpm
Log2 differential normalized TPM ratio compared to glucose [5]: 2.1
Log2 differential normalized TPM ratio compared to lactose [5]: 1.1
Transcripts per million (rpm) [5]: 2243.1 rpm
Log2 differential normalized TPM ratio compared to glucose [6]: 2
Log2 differential normalized TPM ratio compared to lactose [6]: −0.4
Transcripts per million (rpm) [6]: 868.4 rpm
Log2 differential normalized TPM ratio compared to glucose [7]: 2.3
Log2 differential normalized TPM ratio compared to lactose [7]: −0.5
Transcripts per million (rpm) [7]: 1210.2 rpm
Log2 differential normalized TPM ratio compared to glucose [8]: 1
Log2 differential normalized TPM ratio compared to lactose [8]: −0.3
Transcripts per million (rpm) [8]: 69.1 rpm
Log2 differential normalized TPM ratio compared to glucose [9]: 3.7
Log2 differential normalized TPM ratio compared to lactose [9]: 1.2
Transcripts per million (rpm) [9]: 108.4 rpm
Log2 differential normalized TPM ratio compared to glucose [10]: 1.9
Log2 differential normalized TPM ratio compared to lactose [10]: −0.3
Transcripts per million (rpm) [10]: 138.8 rpm
Log2 differential normalized TPM ratio compared to glucose [11]: 1.9
Log2 differential normalized TPM ratio compared to lactose [11]: −0.3
Transcripts per million (rpm) [11]: 337.4 rpm
Log2 differential normalized TPM ratio compared to glucose [12]: 2
Log2 differential normalized TPM ratio compared to lactose [12]: −0.4
Transcripts per million (rpm) [12]: 278.7 rpm
Log2 differential normalized TPM ratio compared to glucose [13]: 1.6
Log2 differential normalized TPM ratio compared to lactose [13]: −0.3
Transcripts per million (rpm) [13]: 342.2 rpm
Log2 differential normalized TPM ratio compared to glucose [14]: 2
Log2 differential normalized TPM ratio compared to lactose [14]: 0.1
Transcripts per million (rpm) [14]: 186.9 rpm
Log2 differential normalized TPM ratio compared to glucose [15]: 1.4
Log2 differential normalized TPM ratio compared to lactose [15]: 0.9
Transcripts per million (rpm) [15]: 2.8 rpm
Log2 differential normalized TPM ratio compared to glucose [16]: 2.4
Log2 differential normalized TPM ratio compared to lactose [16]: 2.1
Transcripts per million (rpm) [16]: 490.6 rpm
Log2 differential normalized TPM ratio compared to glucose [17]: 2.2
Log2 differential normalized TPM ratio compared to lactose [17]: 2
Transcripts per million (rpm) [17]: 381 rpm
Log2 differential normalized TPM ratio compared to glucose [18]: −0.3
Log2 differential normalized TPM ratio compared to lactose [18]: −0.8
Transcripts per million (rpm) [18]: 12.5 rpm
Log2 differential normalized TPM ratio compared to glucose [19]: 2.4
Log2 differential normalized TPM ratio compared to lactose [19]: 1.4
Transcripts per million (rpm) [19]: 15.5 rpm
Log2 differential normalized TPM ratio compared to glucose [20]: 2.3
Log2 differential normalized TPM ratio compared to lactose [20]: 1.2
Transcripts per million (rpm) [20]: 183.9 rpm
Log2 differential normalized TPM ratio compared to glucose [21]: 2.9
Log2 differential normalized TPM ratio compared to lactose [21]: −0.2
Transcripts per million (rpm) [21]: 9527.2 rpm
Log2 differential normalized TPM ratio compared to glucose [22]: 1.9
Log2 differential normalized TPM ratio compared to lactose [22]: 1.2
Transcripts per million (rpm) [22]: 154.8 rpm
Log2 differential normalized TPM ratio compared to glucose [23]: 4.8
Log2 differential normalized TPM ratio compared to lactose [23]: 3
Transcripts per million (rpm) [23]: 70.6 rpm
Log2 differential normalized TPM ratio compared to glucose (gene LBA0861 (Polyferredoxin)): 2
Log2 differential normalized TPM ratio compared to lactose (gene LBA0861 (Polyferredoxin)): 1.5
Transcripts per million (rpm) (gene LBA0861 (Polyferredoxin)): 785.8 rpm
Log2 differential normalized TPM ratio compared to glucose (gene LBA1023 (Oxidoreductase)): 2.3
Log2 differential normalized TPM ratio compared to lactose (gene LBA1023 (Oxidoreductase)): 2
Transcripts per million (rpm) (gene LBA1023 (Oxidoreductase)): 911.4 rpm
Log2 differential normalized TPM ratio compared to glucose [24]: 2.7
Log2 differential normalized TPM ratio compared to lactose [24]: 2.7
Transcripts per million (rpm) [24]: 210.8 rpm
Log2 differential normalized TPM ratio compared to glucose [25]: 2.3
Log2 differential normalized TPM ratio compared to lactose [25]: 1.9
Transcripts per million (rpm) [25]: 162.5 rpm
Log2 differential normalized TPM ratio compared to glucose (gene LBA1027 (Oxidoreductase)): 2.1
Log2 differential normalized TPM ratio compared to lactose (gene LBA1027 (Oxidoreductase)): 0.6
Transcripts per million (rpm) (gene LBA1027 (Oxidoreductase)): 2680.9 rpm
Log2 differential normalized TPM ratio compared to glucose [26]: 2.2
Log2 differential normalized TPM ratio compared to lactose [26]: 1
Transcripts per million (rpm) [26]: 636.7 rpm
Log2 differential normalized TPM ratio compared to glucose [27]: 3.1
Log2 differential normalized TPM ratio compared to lactose [27]: 1
Transcripts per million (rpm) [27]: 609.8 rpm
Log2 differential normalized TPM ratio compared to glucose [28]: 5
Log2 differential normalized TPM ratio compared to lactose [28]: 1.3
Transcripts per million (rpm) [28]: 142.3 rpm
Log2 differential normalized TPM ratio compared to glucose [29]: 0.7
Log2 differential normalized TPM ratio compared to lactose [29]: −0.9
Transcripts per million (rpm) [29]: 28.7 rpm
Log2 differential normalized TPM ratio compared to glucose [30]: 2.1
Log2 differential normalized TPM ratio compared to lactose [30]: −2.9
Transcripts per million (rpm) [30]: 385 rpm
Log2 differential normalized TPM ratio compared to glucose [31]: 1.2
Log2 differential normalized TPM ratio compared to lactose [31]: 0.6
Transcripts per million (rpm) [31]: 48.5 rpm
Log2 differential normalized TPM ratio compared to glucose [32]: 2.2
Log2 differential normalized TPM ratio compared to lactose [32]: 0.8
Transcripts per million (rpm) [32]: 1975.8 rpm
Log2 differential normalized TPM ratio compared to glucose [33]: 2
Log2 differential normalized TPM ratio compared to lactose [33]: 0.8
Transcripts per million (rpm) [33]: 1361.3 rpm
Log2 differential normalized TPM ratio compared to glucose [34]: 0.3
Log2 differential normalized TPM ratio compared to lactose [34]: 0.5
Transcripts per million (rpm) [34]: 20.5 rpm
Log2 differential normalized TPM ratio compared to glucose [35]: 1.6
Log2 differential normalized TPM ratio compared to lactose [35]: 0.9
Transcripts per million (rpm) [35]: 21.2 rpm
Log2 differential normalized TPM ratio compared to glucose [36]: 2.4
Log2 differential normalized TPM ratio compared to lactose [36]: 1.6
Transcripts per million (rpm) [36]: 95.9 rpm
Log2 differential normalized TPM ratio compared to glucose [37]: 2.3
Log2 differential normalized TPM ratio compared to lactose [37]: 1.4
Transcripts per million (rpm) [37]: 42.9 rpm
Log2 differential normalized TPM ratio compared to glucose [38]: 1.9
Log2 differential normalized TPM ratio compared to lactose [38]: 0
Transcripts per million (rpm) [38]: 6023.9 rpm
Log2 differential normalized TPM ratio compared to glucose [39]: 0.7
Log2 differential normalized TPM ratio compared to lactose [39]: −2.1
Transcripts per million (rpm) [39]: 28.5 rpm
Log2 differential normalized TPM ratio compared to glucose (gene LBA1796 (ABC exporter)): 1.9
Log2 differential normalized TPM ratio compared to lactose (gene LBA1796 (ABC exporter)): −0.6
Transcripts per million (rpm) (gene LBA1796 (ABC exporter)): 35.2 rpm
Log2 differential normalized TPM ratio compared to glucose [40]: 4.2
Log2 differential normalized TPM ratio compared to lactose [40]: 1.8
Transcripts per million (rpm) [40]: 156.4 rpm
Log2 differential normalized TPM ratio compared to glucose [41]: 1.4
Log2 differential normalized TPM ratio compared to lactose [41]: 1.2
Transcripts per million (rpm) [41]: 74.5 rpm
Log2 Ratio vs Glc, LBA0225 Phospho-β-glucosidase (GH1) [42]: −0.2
Log2 Ratio vs Glc, LBA0227 PTS EIIC [42]: 0.8
Log2 Ratio vs Glc, LBA0228 Transcriptional regulator [42]: 0.9
Log2 Ratio vs Glc, LBA0466 Phosphoenolpyruvate carboxykinase (ATP) [42]: 2
Log2 Ratio vs Glc, LBA0491 PTS EIIC [42]: 3.4
Log2 Ratio vs Glc, LBA0492 Hypothetical protein [42]: 3.7
Log2 Ratio vs Glc, LBA0555 Myosin-cross-reactive antigen/Fatty acid hydratase [42]: 2
Log2 Ratio vs Glc, LBA0606 PTS EIIBC [42]: 2.8
Log2 Ratio vs Glc, LBA0631 Hypothetical protein [42]: 2.9
Log2 Ratio vs Glc, LBA0724 Transcriptional regulator (antiterminator) [42]: 5.5
Log2 Ratio vs Glc, LBA0725 PTS EIICBA [42]: 9.8
Log2 Ratio vs Glc, LBA0726 Phospho-β-glucosidase (GH1) [42]: 6.9
Log2 Ratio vs Glc, LBA0728 Hypothetical protein [42]: 4.8
Log2 Ratio vs Glc, LBA0876 PTS EIIC [42]: 2.9
Log2 Ratio vs Glc, LBA0877 PTS EIIA [42]: 3
Log2 Ratio vs Glc, LBA1401 Peroxidase (Npx) [42]: 3.1
Log2 Ratio vs Glc, LBA1411 Fumarate reductase flavoprotein subunit [42]: 1.7
Log2 Ratio vs Glc, LBA1433 Dihydroxyacetone kinase [42]: 3.7
Log2 Ratio vs Glc, LBA1434 Dihydroxyacetone kinase [42]: 4.5
Log2 Ratio vs Glc, LBA1435 Hypothetical protein [42]: 5
Log2 Ratio vs Glc, LBA1436 Glycerol uptake facilitator protein [42]: 4.9
Log2 Ratio vs Glc, LBA1632 NAD-dependent aldehyde dehydrogenase [42]: 3.3
Log2 Ratio vs Glc, LBA1684 PTS EIIA [42]: 2.9
Log2 Ratio vs Glc, LBA1689 Maltose-6′-phosphate glucosidase (GH4) [42]: 1.8
Log2 Ratio vs Glc, LBA1701 Melibiose operon regulatory protein [42]: 4.9
Log2 Ratio vs Glc, LBA1709 Mucus binding protein precursor [42]: 3.6
Log2 Ratio vs Glc, LBA1797 Hypothetical protein [42]: 2.6
Log2 Ratio vs Glc, LBA1812 α-Glucosidase II (GH31) [42]: 2.8
Log2 Ratio vs Glc, LBA1869 β-Phosphoglucomutase [42]: 4.2
Log2 Ratio vs Glc, LBA1871 Neopullulanase (GH13) [42]: 2.1
Log2 Ratio vs Glc, LBA1873 Acetate kinase [42]: 0.8
Log2 Ratio vs Glc, LBA1974 Pyruvate oxidase [42]: 3.6
